{
  "source": "patent US6709679B2",
  "about": "“Antineoplastic conjugates of transferin, albumin and polyethylene glycol” (priority 1996, dated 2004)",
  "test_system": "mammary carcinoma MCF-7",
  "test": "xeno-transplantable naked-mouse model, mammary carcinoma MCF-7 s.c.",
  "assay_type": "in vivo, mice (Ncr:nu/nu female)",
  "protocol": "The dose refers to the amount of doxorubicin available. […] In the case of the highest dose employed in the experiment (12 mg/kg), there appears a very high lethalness (5 of 7 and 7 of 7 animals, respectively) in the therapy with doxorubicin.",
  "data": [
    {"smiles": "COc1cccc2c1C(=O)c1c(O)c3c(c(O)c1C2=O)C[C@@](O)(C(=O)CO)C[C@@H]3O[C@H]1C[C@H](N)[C@H](O)[C@H](C)O1", "note": "[doxorubicin]", "values": [
      {"measurement": "optimum TIC (%)", "setting": "dose 4 mg/kg/inj. i.v. day 16 and 23", "result": 61, "unit": "%"},
      {"measurement": "optimum TIC (%)", "setting": "dose 8 mg/kg/inj. i.v. day 16 and 23", "result": 39, "unit": "%"},
      {"measurement": "mortality (d)", "setting": "dose 8 mg/kg/inj. i.v. day 16 and 23, number of deaths (day), 8 mice", "result": "1 (26)"},
      {"measurement": "mortality (d)", "setting": "dose 12 mg/kg/inj. i.v. day 16 and 23, number of deaths (days), 7 mice", "result": "7 (25-33)"}
    ]}
  ]
}
